Reference: US9918975B2, “Method for improving dissolution of anticoagulant agent” (Daiichi Sankyo Company, Limited, priority 2010, dated 2018)

Assay: Solubility of compound I in aqueous solutions
Type: physicochemical

solubility (neutral aqueous solutions (e.g., a neutral buffer)): reduced solubility | solubility (strongly acidic aqueous solutions): favorable solubility
Compound: CN1CCc2nc(C(=O)N[C@@H]3C[C@@H](C(=O)N(C)C)CC[C@@H]3NC(=O)C(=O)Nc3ccc(Cl)cn3)sc2C1 [compound I, N^1-(5-chloropyridin-2-yl)-N^2-((1S,2R,4S)-4-[(dimethylamino)carbonyl]-2-{[(5-methyl-4,5,6,7-tetrahydrothiazolo[5,4-c]pyridin-2-yl)carbonyl]amino}cyclohexyl)ethanediamide]
